We go through 19 compounds from US11021493B2, “1,4-thiazine dioxide and 1,2,4-thiadiazine dioxide derivatives as beta-secretase inhibitors and methods of use” (AMGEN INC., priority 2016, dated 2021).

A value given as a limit tells only on which side of the number the result lay.

In assay [1] the target is T1, BACE1 (Homo sapiens (Human), UniProt P56817). Description: In vitro enzymatic BACE1 FRET assay. Particulars: read-out: BACE1 Enzyme IC50. Type of assay: biochemical.
Target sequence in this assay (P56817 46-501): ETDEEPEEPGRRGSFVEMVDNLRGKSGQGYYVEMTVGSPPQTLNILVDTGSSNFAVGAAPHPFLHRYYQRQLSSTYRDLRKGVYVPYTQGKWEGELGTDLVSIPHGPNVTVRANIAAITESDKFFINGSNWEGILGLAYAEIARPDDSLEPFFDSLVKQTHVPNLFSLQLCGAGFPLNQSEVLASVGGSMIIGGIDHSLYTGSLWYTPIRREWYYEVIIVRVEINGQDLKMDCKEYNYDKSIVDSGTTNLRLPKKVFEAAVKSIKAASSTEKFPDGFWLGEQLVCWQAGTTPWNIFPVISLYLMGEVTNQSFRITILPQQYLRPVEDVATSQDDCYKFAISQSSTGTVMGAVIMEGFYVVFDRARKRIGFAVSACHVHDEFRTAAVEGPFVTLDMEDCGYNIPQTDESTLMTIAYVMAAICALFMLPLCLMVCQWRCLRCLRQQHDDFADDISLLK
Assay [2] has as its target T1, BACE1. Description: In vitro BACE1 cell-based assay (Aβ40 in conditioned medium of cells stably expressing APP, HTRF). The conditions noted are these: Aβ40 in conditioned media after 24 h incubation. Background: In TR-FRET formats the signal depends on donor and acceptor labels being close together.
Target sequence in this assay (P56817 46-501, species assumed): as the sequence (P56817 46-501) above
The next assay has as its target Cathepsin D (CatD) (Homo sapiens (Human), UniProt P07339). Description: In vitro enzymatic Cathepsin D (CatD) FRET assay. Type of assay: biochemical. The conditions noted are these: read-out: Cat D Enzyme IC50.
The target of another assay is human recombinant BACE2 (Homo sapiens (Human), UniProt Q9Y5Z0). Description: In vitro enzymatic BACE2 FRET assay. Type of assay: biochemical. The conditions noted are these: read-out: BACE2 Enzyme IC50.
human recombinant BACE2, sequence (Q9Y5Z0 63-518): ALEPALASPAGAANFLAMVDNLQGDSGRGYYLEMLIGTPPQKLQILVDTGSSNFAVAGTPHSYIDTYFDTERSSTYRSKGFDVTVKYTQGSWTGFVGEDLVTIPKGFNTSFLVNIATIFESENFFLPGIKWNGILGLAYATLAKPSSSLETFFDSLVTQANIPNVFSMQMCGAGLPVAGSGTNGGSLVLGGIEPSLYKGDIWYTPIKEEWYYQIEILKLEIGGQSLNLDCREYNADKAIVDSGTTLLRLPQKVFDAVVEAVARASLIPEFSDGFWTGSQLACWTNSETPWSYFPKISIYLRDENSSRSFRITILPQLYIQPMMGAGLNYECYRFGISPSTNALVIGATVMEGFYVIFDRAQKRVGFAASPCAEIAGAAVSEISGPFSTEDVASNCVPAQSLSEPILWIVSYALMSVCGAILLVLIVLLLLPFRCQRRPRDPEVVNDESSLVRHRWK

Cathepsin D (CatD), sequence (P07339 65-412, species assumed): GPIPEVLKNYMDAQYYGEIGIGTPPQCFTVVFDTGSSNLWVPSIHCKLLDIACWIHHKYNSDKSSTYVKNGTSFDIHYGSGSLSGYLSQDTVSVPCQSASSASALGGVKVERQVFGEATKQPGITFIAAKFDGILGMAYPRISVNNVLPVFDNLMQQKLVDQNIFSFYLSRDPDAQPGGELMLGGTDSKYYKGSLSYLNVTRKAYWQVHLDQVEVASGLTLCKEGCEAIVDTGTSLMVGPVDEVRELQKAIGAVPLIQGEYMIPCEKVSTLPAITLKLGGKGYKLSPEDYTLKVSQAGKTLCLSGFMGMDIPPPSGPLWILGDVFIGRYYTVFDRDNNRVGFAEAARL

Turning to `C[C@@]1(c2cc(/C=C(\F)c3ccc(C#N)cn3)ccc2F)CS(=O)(=O)C2(CCC2)C(N)=N1` [Example 103, (R,Z)-6-(2-(3-(9-amino-7-methyl-5,5-dioxido-5-thia-8-azaspiro[3.5]non-8-en-7-yl)-4-fluorophenyl)-1-fluorovinyl)nicotinonitrile], the IC50 (commonly the point on the concentration scale where inhibition reaches its midpoint) amounted to 3 nM on BACE1 [1], 39 nM on BACE1 [2], 94700 nM on Cathepsin D (CatD) and 50 nM at human recombinant BACE2.
On the same counts, the results for `CN1C(N)=N[C@](C)(c2cc(/C=C(\F)c3ccc(Cl)cn3)ccc2F)CS1(=O)=O` [Example 104, (R,Z)-3-amino-5-(5-(2-(5-chloropyridin-2-yl)-2-fluorovinyl)-2-fluorophenyl)-2,5-dimethyl-5,6-dihydro-2H-1,2,4-thiadiazine 1,1-dioxide] are 3 nM, 24 nM, 95000 nM and 2 nM.
For `CN1C(N)=N[C@](C)(c2cc(/C=C(\F)c3ccc(Br)cn3)cc(F)c2F)CS1(=O)=O` [Example 105, (R,Z)-3-amino-5-(5-(2-(5-bromopyridin-2-yl)-2-fluorovinyl)-2,3-difluorophenyl)-2,5-dimethyl-5,6-dihydro-2H-1,2,4-thiadiazine 1,1-dioxide], the IC50 at BACE1 [1] amounted to 12 nM; at BACE1 [2], 23 nM; on Cathepsin D (CatD), 35800 nM; at human recombinant BACE2, 9 nM.
On to `CN1C(N)=N[C@](C)(c2cc(/C=C(\F)c3ccc(C#N)cn3)ccc2F)CS1(=O)=O` [Example 106, (R,Z)-6-(2-(3-(3-amino-2,5-dimethyl-1,1-dioxido-5,6-dihydro-2H-1,2,4-thiadiazin-5-yl)-4-fluorophenyl)-1-fluorovinyl)nicotinonitrile], for which the IC50 on BACE1 [1] came out at 1 nM; against BACE1 [2], 2 nM; at Cathepsin D (CatD) it was 182000 nM; at human recombinant BACE2 it was 31 nM.
On the same counts, the results for `CN1C(N)=N[C@](C)(c2cc(/C=C(\F)c3ccc(C#N)cn3)cc(F)c2F)CS1(=O)=O` [Example 107, (R,Z)-6-(2-(3-(3-amino-2,5-dimethyl-1,1-dioxido-5,6-dihydro-2H-1,2,4-thiadiazin-5-yl)-4,5-difluorophenyl)-1-fluorovinyl)nicotinonitrile] are 3 nM, 3 nM, 81800 nM and 25 nM.
On the same counts, the results for `C#CCOc1cnc(/C(F)=C/c2ccc(F)c([C@@]3(C)N=C(N)[C@@]4(CF)CC[C@@H]3S4(=O)=O)c2)cn1` [Example 108, (1R,4R,5S)-2-amino-4-(2-fluoro-5-((Z)-2-fluoro-2-(5-(prop-2-yn-1-yloxy)pyrazin-2-yl)vinyl)phenyl)-1-(fluoromethyl)-4-methyl-8-thia-3-azabicyclo[3.2.1]oct-2-ene 8,8-dioxide] are 3 nM, 6 nM, 145000 nM and 57 nM.
On the same counts, the results for `C[C@]1(c2cc(/C=C(\F)c3cnc(OCC(F)(F)F)cn3)ccc2F)N=C(N)[C@@]2(CF)CC[C@@H]1S2(=O)=O` [Example 109, (1R,4R,5S)-2-amino-4-(2-fluoro-5-((Z)-2-fluoro-2-(5-(2,2,2-trifluoroethoxy)pyrazin-2-yl)vinyl)phenyl)-1-(fluoromethyl)-4-methyl-8-thia-3-azabicyclo[3.2.1]oct-2-ene 8,8-dioxide] are 28 nM, 227 nM, 135000 nM and 167 nM.
As to `CN1C(N)=N[C@](C)(c2cc(/C=C(\F)C3CCOCC3)cc(F)c2F)CS1(=O)=O` [Example 110, (R,Z)-3-amino-5-(2,3-difluoro-5-(2-fluoro-2-(tetrahydro-2H-pyran-4-yl)vinyl)phenyl)-2,5-dimethyl-5,6-dihydro-2H-1,2,4-thiadiazine 1,1-dioxide], the half-maximal inhibitory concentration (IC50) at BACE1 [1] is 709 nM; on BACE1 [2], 631 nM; on Cathepsin D (CatD), 194000 nM; on human recombinant BACE2, 963 nM.
On the same counts, the results for `CN1C(N)=N[C@](C)(c2cc(/C=C(\F)c3cnc(Cl)cn3)ccc2F)CS1(=O)=O` [Example 111, (R,Z)-3-amino-5-(5-(2-(5-chloropyrazin-2-yl)-2-fluorovinyl)-2-fluorophenyl)-2,5-dimethyl-5,6-dihydro-2H-1,2,4-thiadiazine 1,1-dioxide] are 7 nM, 6 nM, 86300 nM and 5 nM.
With `CC1(C)C(N)=N[C@](C)(c2cc(/C=C(\F)c3ccc(C#N)cn3)ccc2F)CS1(=O)=O` [Example 113, (R,Z)-6-(2-(3-(5-amino-3,6,6-trimethyl-1,1-dioxido-3,6-dihydro-2H-1,4-thiazin-3-yl)-4-fluorophenyl)-1-fluorovinyl)nicotinonitrile], the IC50 on BACE1 [1] amounted to 2 nM; against BACE1 [2], 4 nM; at Cathepsin D (CatD), 100000 nM; on human recombinant BACE2, 9 nM.
`CC1(C)C(N)=N[C@](C)(c2cc(/C=C(\F)c3ccc(Cl)cn3)ccc2F)CS1(=O)=O` [Example 114, (R,Z)-5-amino-3-(5-(2-(5-chloropyridin-2-yl)-2-fluorovinyl)-2-fluorophenyl)-3,6,6-trimethyl-3,6-dihydro-2H-1,4-thiazine 1,1-dioxide]: the IC50 came to 9 nM at BACE1 [1], 80 nM at BACE1 [2], 115000 nM on Cathepsin D (CatD) and 3 nM at human recombinant BACE2.
As to `Cc1noc(COc2cnc(/C(F)=C/c3ccc(F)c([C@@]4(C)N=C(N)[C@@]5(CF)CC[C@@H]4S5(=O)=O)c3)cn2)n1` [Example 115, (1R,4R,5S)-2-amino-4-(2-fluoro-5-((Z)-2-fluoro-2-(5-((3-methyl-1,2,4-oxadiazazol-5-yl)methoxy)pyrazin-2-yl)vinyl)phenyl)-1-(fluoromethyl)-4-methyl-8-thia-3-azabicyclo[3.2.1]oct-2-ene 8,8-dioxide], the IC50 at BACE1 [1] worked out at 22 nM; at BACE1 [2] it was 27 nM; at Cathepsin D (CatD) it was 102000 nM; on human recombinant BACE2, 192 nM.
On to `CN1C(N)=N[C@](C)(c2cc(/C=C(\F)c3cnc(OCC(F)(F)F)cn3)ccc2F)CS1(=O)=O` [Example 117, (R,Z)-3-amino-5-(2-fluoro-5-(2-fluoro-2-(5-(2,2,2-trifluoroethoxy)pyrazin-2-yl)vinyl)phenyl)-2,5-dimethyl-5,6-dihydro-2H-1,2,4-thiadiazine 1,1-dioxide], for which the IC50 was found to be 23 nM on BACE1 [1], 148 nM against BACE1 [2], 29100 nM at Cathepsin D (CatD) and 186 nM on human recombinant BACE2.
On the same counts, the results for `C[C@]1(c2cc(/C=C(\F)c3cnc(OCC4CC4)cn3)ccc2F)N=C(N)[C@@]2(CF)CC[C@@H]1S2(=O)=O` [Example 118, (1R,4R,5S)-2-amino-4-(5-((Z)-2-(5-(cyclopropylmethoxy)pyrazin-2-yl)-2-fluorovinyl)-2-fluorophenyl)-1-(fluoromethyl)-4-methyl-8-thia-3-azabicyclo[3.2.1]oct-2-ene 8,8-dioxide] are 35 nM, 706 nM, > 400000 nM and 124 nM.
On the same counts, the results for `Cc1nnc(COc2cnc(/C(F)=C/c3ccc(F)c([C@@]4(C)N=C(N)[C@@]5(CF)CC[C@@H]4S5(=O)=O)c3)cn2)o1` [Example 119, (1R,4R,5S)-2-amino-4-(2-fluoro-5-((Z)-2-fluoro-2-(5-((5-methyl-1,3,4-oxadiazol-2-yl)methoxy)pyrazin-2-yl)vinyl)phenyl)-1-(fluoromethyl)-4-methyl-8-thia-3-azabicyclo[3.2.1]oct-2-ene 8,8-dioxide] are 21 nM, 60 nM, > 400000 nM and 182 nM.
Turning to `C[C@]1(c2cc(/C=C(\F)c3cnc(OCC(F)(F)C(F)F)cn3)ccc2F)N=C(N)[C@@]2(CF)CC[C@@H]1S2(=O)=O` [Example 120, (1R,4R,5S)-2-amino-4-(2-fluoro-5-((Z)-2-fluoro-2-(5-(2,2,3,3-tetrafluoropropoxy)pyrazin-2-yl)vinyl)phenyl)-1-(fluoromethyl)-4-methyl-8-thia-3-azabicyclo[3.2.1]oct-2-ene 8,8-dioxide], the IC50 on BACE1 [1] was 37 nM; on BACE1 [2], 542 nM; on Cathepsin D (CatD), > 400000 nM; at human recombinant BACE2, 258 nM.
On the same counts, the results for `COc1cnc(/C(F)=C/c2ccc(F)c([C@@]3(C)N=C(N)[C@@]4(CF)CC[C@@H]3S4(=O)=O)c2)cn1` [Example 121, (1R,4R,5S)-2-amino-4-(2-fluoro-5-((Z)-2-fluoro-2-(5-methoxypyrazin-2-yl)vinyl)phenyl)-1-(fluoromethyl)-4-methyl-8-thia-3-azabicyclo[3.2.1]oct-2-ene 8,8-dioxide] are 98 nM, 191 nM, > 400000 nM and 180 nM.
On the same counts, the results for `CCOc1cnc(/C(F)=C/c2ccc(F)c([C@@]3(C)N=C(N)[C@@]4(CF)CC[C@@H]3S4(=O)=O)c2)cn1` [Example 122, (1R,4R,5S)-2-amino-4-(5-((Z)-2-(5-ethoxypyrazin-2-yl)-2-fluorovinyl)-2-fluorophenyl)-1-(fluoromethyl)-4-methyl-8-thia-3-azabicyclo[3.2.1]oct-2-ene 8,8-dioxide] are 54 nM, 527 nM, > 400000 nM and 194 nM.
In the case of `CC1(C)C(N)=N[C@](C)(c2cc(/C=C(\F)c3cnc(OCC(F)(F)F)cn3)ccc2F)CS1(=O)=O` [Example 124, (R,Z)-5-amino-3-(2-fluoro-5-(2-fluoro-2-(5-(2,2,2-trifluoroethoxy)pyrazin-2-yl)vinyl)phenyl)-3,6,6-trimethyl-3,6-dihydro-2H-1,4-thiazine 1,1-dioxide], the IC50 on BACE1 [1] was 39 nM; against BACE1 [2] it was 134 nM; on Cathepsin D (CatD), 218000 nM; on human recombinant BACE2, 161 nM.
